# Reference: patent US20210380547A1, “UREA DERIVATIVES FOR TREATING AND/OR PREVENTING CANCER” (CENTRE NATIONAL DE LA RECHERCHE SCIENTIFIQUE, priority 2018, published 2021)
# Assays:
# [1] = tested on: RCC4; assay: XTT cell viability assay, RCC4; assay type: cell-based; details: Homo sapiens, XTT assay (48 h), standard deviation of 10%, read-out: EC50 (μM) Kidney RCC4
# Protocol: (§1) Fifty microliters of sodium 3′-[1-phenylaminocarbonyl)-3,4-tetrazolium]-bis(4-methoxy-6-nitro) benzene sulfonic acid hydrate (XTT) reagent was added to each well. The assay is based on the cleavage of the yellow tetrazolium salt XTT to form an orange formazan dye by metabolically active cells. The absorbance of the formazan product, reflecting cell viability, was measured at 490 nm. Each assay was performed in quadruplicate.
# (§2) Compounds #1-#14 have been assayed as potential anti-proliferative agents against a panel of human breast head and neck, and kidney tumor cells and hematological malignancies, selected on the basis of their aggressiveness (e.g. incurable triple-negative breast cancer cells: MDA-MB-231; kidney ccRCC cells: RCC4, A498 and 786-O and 786R; head and neck cancer cells: CAL33, CAL33RR, CAL27, and CAL27RR; acute myeloid cell lines: OCI-AML2, OCI-AML3, MolM13, and MolM14; myelodysplastic cell line: SM1; and chronic myeloid cell line: CML). All these cell lines share as common denominator the expression of CXCR1 and CXCR2. The EC50 values have been measured by a XTT colorimetric assay, and compared to those of SB-225002, used as a reference; the results are listed in Table 1.
# [2] = tested on: MolM13; assay: XTT cell viability assay, MolM13; assay type: cell-based, human; details: Homo sapiens, MOLM-13; XTT assay (48 h); standard deviation of 10%; read-out: EC50 (μM) AML MolM13
# Protocol: as §1, §2
# [3] = tested on: 786-O and 786-R cells; assay: FACS analysis of death markers, sunitinib-sensitive and -resistant cells; assay type: cell-based, human; details: 2.5 μM, 48 h, 786 and 786-R
# Protocol: C: 786 and 786-R cells were treated with 2.5 μM compound #1 for 48 h. Cells were stained with the PI/annexin-V-fluo staining kit according to the manufacturer's indications. Histograms show both annexin-V^+/PI^− cells (blue bars) and annexin-V^+/PI^+ cells (red bars);
# Apoptosis analysis: After stimulation, cells were washed with ice-cold PBS and were stained with the annexin-V-fluos staining kit (Roche, Meylan, France) according to the manufacturer's procedure. Fluorescence was measured by using the FL2 (AV) and FL3 (propidium iodide, PI) channels of a fluorescence-activated cell sorter apparatus (Calibur cytometer).
# [4] = tested on: caspase-3 activity; assay: Caspase-3 activity assay; assay type: cell-based, human; details: 2.5 μM, 48 hr, 786-O and 786-R
# Protocol: F: Cells were treated with 2.5 and 5 μM compound #1, with 2.5 μM sunitinib for 48 hr. Cells were lysed in caspase buffer and caspase-3 activity was evaluated using 0.2 mM Ac-DEVD-AMC as substrates. Results expressed as arbitrary units (A.U.) and are means±Standard deviation of 3 independent experiments;
# Caspase 3 activity was assessed in quadruplicates using z-DEVD-AMC as substrate and fluorescence were assessed.
compound,measurement,setting,value
"O=C(Nc1cccc(Cl)c1)Nc1nc2ccc([N+](=O)[O-])cc2s1 [Compound #1, 1-(3-chlorophenyl)-3-(6-nitrobenzo[d]thiazol-2-yl)urea]",EC50,[1],5 µM
same,EC50,[2],7 µM
same,death markers (annexin-V/PI) in sensitive and resistant cells,[3],kills in a similar way sensitive and resistant
same,caspase-3 activity,[4],significantly strengthened
